Laboratory results from patent publication US20190054054A1, “Methods reducing or preventing oxidation of high density lipoprotein (HDL)” (Amarin Pharmaceuticals Ireland Limited, priority 2017, published 2019).

Test system: HUVECs exposed to oxLDL
Experiment: NO and ONOO^− release from HUVECs exposed to oxLDL, nanosensors (Example 8)
Type: cell-based, human
Description: Human umbilical vein endothelial cells (HUVECs) were isolated into primary cultures from female donors by Clonetics (San Diego, Calif.) and purchased as proliferating cells. All cell culture donors were healthy, with no pregnancy or prenatal complications. […] The confluent cells (4 to 5×10^5 cells/35 mm dish) were placed with minimum essential medium containing 3 mM L-arginine and 0.1 mM BH4 [(6R)-5,6,7,8-tetrahydrobiopterin]. Before experimental use, the cells (from second or third passage) were rinsed twice with Tyrode-HEPES buffer with 1.8 mM CaCl2).
The omega-3 fatty acids (O3FAs) cis-5,8,11,14,17-eicosapentaenoic acid (EPA) and docosahexaenoic acid (DHA) were purchased from Sigma-Aldrich (St. Louis, Mo.) and prepared initially at 11 mM in redistilled ethanol. Primary and secondary O3FA stock solutions were prepared and stored under argon at −20° C.
The oxLDL causes eNOS uncoupling and endothelial dysfunction to reproduce disease-like conditions. 25 Venous blood from healthy normolipidemic volunteers was collected into Na-EDTA (1 mg/mL blood) vacuum tubes after a 12-hour fast. Plasma was immediately separated by centrifugation at 3,000 g for 10 minutes at 4° C.
Tris-NaCl buffer was added to the dialyzed LDL to adjust the protein concentration to 30 mg/mL. A 1-mL aliquot of 20 μM CuSO4 was added to 1 mL of dialyzed normal LDL.
Oxidation was monitored by the use of measurements of TBARS. Briefly, LDL was incubated with thiobarbituric acid (0.5 wt/vol, in H2SO4, 50 mM) for 30 minutes at 100° C. […] TBARS concentration was determined as malondialdehyde (MDA) equivalents with the use of an MDA standard curve.
Concurrent measurements of NO and ONOO^− were performed with tandem electrochemical nanosensors combined into one working unit with a total diameter of 200-400 nm. Their design was based on previously developed and chemically modified carbon-fiber technology. Each of the nanosensors was made by depositing a sensing material on the tip of a carbon fiber (length 4 to 5 μm, diameter 100-200 nm). The fibers were sealed with nonconductive epoxy and electrically connected to copper wires with conductive silver epoxy. Conductive films of polymeric Ni(II) tetrakis (3-methoxy-4-hydroxyphenyl) porphyrin and Mn(III) [2.2] paracyclophanylporphyrin were used for the NO and ONOO^− sensors, respectively.
The amperometric method (with a response time of 0.1 ms) provides a quantitative signal (current) that is directly proportional to changes (from basal levels) in NO or ONOO^− concentration. Amperometric measurements were performed with a Gamry III double-channel potentiostat. Basal NO or ONOO^− levels were measured by differential pulse voltammetry in separate experiments.
All measurements of NO and ONOO^− were performed on intact endothelial cells. The NO/ONOO^− nanosensor module was positioned 5±2 μm from the surface of each individual endothelial cell using a computer-controlled M3301 micromanipulator (x-y-z resolution of 0.2 μm) and microscope (both from World Precision Instruments, Berlin, Germany) fitted with a CD camera.
Endothelial basal media was used for all the treatments. Controls were supplied with an equivalent volume of endothelial basal media.
Data are presented as mean±S.D. for (N) separate samples or experiments. Differences between groups were analyzed using the two-tailed, Student t-test (for comparisons between only two groups) or ANOVA followed by Student-Newman-Keuls multiple comparisons post-hoc analysis (for comparisons between three or more groups). Only differences with probability values less than 0.05 were considered significant.

[1] = oxLDL 20 min, then treatment for 1 hour, EPA 10 μM, ATM 1.0 μM
[2] = treatment 'EPA + oxLDL' (Table 1)

## CC/C=C\C/C=C\C/C=C\C/C=C\C/C=C\CCCC(=O)O [EPA, cis-5,8,11,14,17-eicosapentaenoic acid]
As compared to vehicle, EPA 10 μM, ATM 1.0 μM
  increase in NO release in ECs exposed to oxLDL: 45%
[1]
  NO: 423 ± 163 nM
  NO/ONOO^− Ratio: 2.24 ± 0.91
  ONOO^−: 189 ± 25
[2]
  NO: 663 ± 50
  NO/ONOO^− Ratio: 2.68 ± 0.28
  ONOO^−: 247 ± 17

## O=C(O)c1cccnc1 [niacin, nicotinic acid]
[1]
  NO: 431 ± 100 nM
  NO/ONOO^− Ratio: 2.00 ± 0.52
  ONOO^−: 215 ± 25

## CC/C=C\C/C=C\C/C=C\C/C=C\C/C=C\C/C=C\CCC(=O)O [DHA, docosahexaenoic acid]
[1]
  NO: 567 ± 103 nM
  NO/ONOO^− Ratio: 3.39 ± 0.72
  ONOO^−: 167 ± 18

## Cc1ccc(C)c(OCCCC(C)(C)C(=O)O)c1 [gemfibrozil]
[1]
  NO: 192 ± 34 nM
  NO/ONOO^− Ratio: 0.72 ± 0.16
  ONOO^−: 266 ± 34
